From patent publication US12391680B2, “Compounds and compositions for the treatment of cystic fibrosis” (FONDAZIONE ISTITUTO ITALIANO DI TECNOLOGIA, priority 2019, dated 2025) come the findings set out here.

Some results are limits rather than exact numbers.

The target in this assay is mutant CFTR (Homo sapiens, UniProt P13569). The experiment in a line: Fluorescence assay for CFTR activity (halide-sensitive YFP, HS-YFP). In kind it is cell-based. The note with it: CFBE41o- and FRT cells with stable expression of mutant CFTR. The protocol:
Mutant CFTR activity was determined with the functional assay based on the halide-sensitive yellow fluorescent protein, HS—YFP (Galietta et al., FEBS Lett 499:220-224, 2001). CFBE41o- and FRT cells with stable expression of mutant CFTR and HS—YFP were plated on clear-bottom 96-well black microplates (Code 3603, Corning Life Sciences) at a density of 50,000 cells/well and kept at 37° C. in 5% CO2 for 24 hours.
For the corrector assay, cells were treated for further 24 hours with test compounds, vehicle (DMSO), or the positive control VX-809. After treatment, the culture medium was removed and cells in each well were stimulated for 30 min at 37° C. with 60 μL PBS (containing 137 mM NaCl, 2.7 mM KCl, 8.1 mM Na2HPO4, 1.5 mM KH2PO4, 1 mM CaCl2, and 0.5 mM MgCl2) plus forskolin (20 μM) and genistein (50 μM).
For determination of potentiator activity on F508del-CFTR, cells were incubated for 24 hours at 27° C. to allow trafficking of the mutant protein to plasma membrane. Cells were then stimulated with for 30 min with PBS containing forskolin (20 μM) plus the compound to be tested at the desired concentration. For determination of potentiator activity on G551D-CFTR or G1349D-CFTR, cells were directly stimulated with forskolin plus test compound without previous incubation at low temperature. At the time of assay, microplates carrying CFBE41o- or FRT cells were transferred to microplate readers (BMG Labtech) equipped with high-quality excitation (HQ500/20×: 500±10 nm) and emission (HQ535/30M: 535±15 nm) filters for YFP (Chroma Technology). The assay consisted of a continuous 14 s fluorescence reading with 2 s before and 12 s after injection of an iodide-containing solution (165 μL of a modified PBS containing I^− instead of Cl^−; final I^− concentration in the well: 100 mM). Data were normalized to the initial background-subtracted fluorescence. Enhanced CFTR activity, induced by correctors and/or potentiators, results in accelerated I^− influx that in turn causes faster HS—YFP quenching (Pedemonte et al., Mol Pharmacol 68:1736-1746, 2005; Pedemonte et al., J Clin Invest 115:2564-2571, […]). To determine fluorescence quenching rate associated with I^− influx, the final 10 s of data for each well were fitted with an exponential function to extrapolate initial slope (dF/dt).
EC50 obtained are illustrated in Table 1 wherein+: EC50>2 μM; ++: 1.0 μM <EC50<2 μM; +++: EC50<1 μM.

Sequence of mutant CFTR (P13569 with tags, fused parts or gaps DEL508-508): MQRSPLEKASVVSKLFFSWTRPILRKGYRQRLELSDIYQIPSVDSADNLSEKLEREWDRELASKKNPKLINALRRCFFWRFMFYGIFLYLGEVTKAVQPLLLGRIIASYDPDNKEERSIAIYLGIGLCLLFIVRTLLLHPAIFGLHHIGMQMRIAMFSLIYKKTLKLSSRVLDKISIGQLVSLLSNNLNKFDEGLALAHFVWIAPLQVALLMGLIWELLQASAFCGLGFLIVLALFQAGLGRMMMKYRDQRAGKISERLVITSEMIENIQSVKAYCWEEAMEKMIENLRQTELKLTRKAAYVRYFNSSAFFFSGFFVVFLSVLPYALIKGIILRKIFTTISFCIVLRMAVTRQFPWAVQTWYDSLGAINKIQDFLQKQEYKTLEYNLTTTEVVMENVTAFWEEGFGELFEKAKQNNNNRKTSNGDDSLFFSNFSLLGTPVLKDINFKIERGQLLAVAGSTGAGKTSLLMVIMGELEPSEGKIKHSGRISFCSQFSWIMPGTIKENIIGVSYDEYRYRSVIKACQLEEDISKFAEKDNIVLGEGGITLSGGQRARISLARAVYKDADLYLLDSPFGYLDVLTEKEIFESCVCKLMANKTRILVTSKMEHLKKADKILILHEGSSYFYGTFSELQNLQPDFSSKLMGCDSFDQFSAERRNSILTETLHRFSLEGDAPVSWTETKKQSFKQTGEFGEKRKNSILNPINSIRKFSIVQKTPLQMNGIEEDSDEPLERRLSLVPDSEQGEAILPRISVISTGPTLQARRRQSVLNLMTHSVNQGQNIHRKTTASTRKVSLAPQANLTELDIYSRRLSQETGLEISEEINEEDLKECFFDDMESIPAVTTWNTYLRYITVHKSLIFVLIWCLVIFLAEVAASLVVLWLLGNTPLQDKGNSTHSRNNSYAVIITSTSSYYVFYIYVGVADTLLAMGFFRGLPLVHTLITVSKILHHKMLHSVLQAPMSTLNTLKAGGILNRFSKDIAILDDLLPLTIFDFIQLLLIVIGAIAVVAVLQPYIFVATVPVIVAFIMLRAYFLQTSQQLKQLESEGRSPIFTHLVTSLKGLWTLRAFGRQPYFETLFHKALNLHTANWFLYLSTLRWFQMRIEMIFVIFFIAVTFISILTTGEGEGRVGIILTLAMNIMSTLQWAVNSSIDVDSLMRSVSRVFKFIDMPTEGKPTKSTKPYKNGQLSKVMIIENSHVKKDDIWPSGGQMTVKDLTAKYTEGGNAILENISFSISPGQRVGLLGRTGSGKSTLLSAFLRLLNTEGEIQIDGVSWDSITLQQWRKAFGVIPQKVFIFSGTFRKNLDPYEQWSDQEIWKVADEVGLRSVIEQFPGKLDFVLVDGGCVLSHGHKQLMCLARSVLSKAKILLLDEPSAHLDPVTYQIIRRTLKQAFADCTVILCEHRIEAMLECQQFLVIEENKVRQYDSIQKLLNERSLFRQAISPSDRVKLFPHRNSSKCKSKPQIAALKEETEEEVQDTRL

Consider `N#Cc1ccc(S(=O)(=O)N2CCOC(c3c(C(N)=O)sc4ccccc34)C2)cc1` (racemic) [compound 037, rac-3-[4-(4-cyanophenyl)sulfonylmorpholin-2-yl]benzothiophene-2-carboxamide], for which the EC50 (usually the midpoint of the concentration-response curve) is above 2000 nM.

As to `NC(=O)c1sc2ccccc2c1C1CN(S(=O)(=O)c2ccc(F)c(C(F)(F)F)c2)CCO1` (racemic) [compound 038, rac-3-[4-[4-fluoro-3-(trifluoromethyl)phenyl]sulfonylmorpholin-2-yl]benzothiophene-2-carboxamide], the concentration for a half-maximal effect (EC50) is above 2000 nM.

For the molecule `NC(=O)c1sc2ccccc2c1C1CN(S(=O)(=O)c2ccc(Cl)cc2)CCO1` (racemic) [compound 040, rac-3-[4-(4-chlorophenyl)sulfonylmorpholin-2-yl]benzothiophene-2-carboxamide], the EC50 was 1000 to 2000 nM.

Take `COc1cc(S(=O)(=O)N2CCOC(c3c(C(N)=O)sc4ccccc34)C2)ccc1C(F)(F)F` (racemic) [compound 045, rac-3-[4-[3-methoxy-4-(trifluoromethyl)phenyl]sulfonylmorpholin-2-yl]benzothiophene-2-carboxamide]: the EC50 was in the range of 1000 to 2000 nM.

`COc1ccc(S(=O)(=O)N2CCOC(c3c(C(N)=O)sc4ccccc34)C2)cc1C(F)(F)F` (racemic) [compound 046, rac-3-[4-[4-methoxy-3-(trifluoromethyl)phenyl]sulfonylmorpholin-2-yl]benzothiophene-2-carboxamide]: the EC50 was below 1000 nM.

Regarding `COc1ccc(S(=O)(=O)N2CCOC(c3c(C(N)=O)sc4ccccc34)C2)cc1[N+](=O)[O-]` (racemic) [compound 047, rac-3-[4-(4-methoxy-3-nitro-phenyl)sulfonylmorpholin-2-yl]benzothiophene-2-carboxamide], the EC50 is above 2000 nM.

Take `COc1cccc(S(=O)(=O)N2CCOC(c3c(C(N)=O)sc4ccccc34)C2)c1` (racemic) [compound 048, rac-3-[4-(3-methoxyphenyl)sulfonylmorpholin-2-yl]benzothiophene-2-carboxamide]: the EC50 is above 2000 nM.

Take `NC(=O)c1sc2ccccc2c1C1CN(S(=O)(=O)c2cccc(OC(F)(F)F)c2)CCO1` (racemic) [compound 049, rac-3-[4-[3-(trifluoromethoxy)phenyl]sulfonylmorpholin-2-yl]benzothiophene-2-carboxamide]: the EC50 was above 2000 nM.

Regarding `COc1ccccc1S(=O)(=O)N1CCOC(c2c(C(N)=O)sc3ccccc23)C1` (racemic) [compound 050, rac-3-[4-(2-methoxyphenyl)sulfonylmorpholin-2-yl]benzothiophene-2-carboxamide], the half-maximal effective concentration (EC50) was above 2000 nM.

For `NC(=O)c1sc2ccccc2c1C1CN(S(=O)(=O)c2ccc(-c3ccccc3)cc2)CCO1` (racemic) [compound 051, rac-3-[4-(4-phenylphenyl)sulfonylmorpholin-2-yl]benzothiophene-2-carboxamide], the EC50 is below 1000 nM.

Turning to `NC(=O)c1sc2ccccc2c1C1CN(S(=O)(=O)c2ccc3ccccc3c2)CCO1` (racemic) [compound 052, rac-3-[4-(2-naphthylsulfonyl)morpholin-2-yl]benzothiophene-2-carboxamide], the concentration giving a half-maximal response (EC50) is above 2000 nM.

Take `COc1ccc(S(=O)(=O)N2CCOC(c3c(C(N)=O)sc4ccccc34)C2)cc1F` (racemic) [compound 053, rac-3-[4-(3-fluoro-4-methoxy-phenyl)sulfonylmorpholin-2-yl]benzothiophene-2-carboxamide]: the EC50 is above 2000 nM.

`COc1ccc(S(=O)(=O)N2CCOC(c3c(C(N)=O)sc4ccccc34)C2)cc1OC` (racemic) [compound 054, rac-3-[4-(3,4-dimethoxyphenyl)sulfonylmorpholin-2-yl]benzothiophene-2-carboxamide]: the EC50 was above 2000 nM.

On to `CN1CCOc2cc(S(=O)(=O)N3CCOC(c4c(C(N)=O)sc5ccccc45)C3)ccc21` (racemic) [compound 057, rac-3-[4-[(4-methyl-2,3-dihydro-1,4-benzoxazin-7-yl)sulfonyl]morpholin-2-yl]benzothiophene-2-carboxamide], for which the EC50 was below 1000 nM.

`NC(=O)c1sc2ccccc2c1C1CN(S(=O)(=O)C2CCOCC2)CCO1` (racemic) [compound 058, rac-3-[4-tetrahydropyran-4-ylsulfonylmorpholin-2-yl]benzothiophene-2-carboxamide]: the concentration giving a half-maximal response (EC50) is above 2000 nM.

Turning to `COCCS(=O)(=O)N1CCOC(c2c(C(N)=O)sc3ccccc23)C1` (racemic) [compound 059, rac-3-[4-(2-methoxyethylsulfonyl)morpholin-2-yl]benzothiophene-2-carboxamide], the EC50 was above 2000 nM.

Take `NC(=O)c1sc2ccccc2c1C1CN(S(=O)(=O)c2ccc(S(F)(F)(F)(F)F)cc2)CCO1` (racemic) [compound 060, rac-3-[4-[4-(pentafluoro-lambda6-sulfanyl)phenyl]sulfonylmorpholin-2-yl]benzothiophene-2-carboxamide]: the concentration for a half-maximal effect (EC50) is 1000 to 2000 nM.

Turning to `CCCCS(=O)(=O)N1CCOC(c2c(C(N)=O)sc3ccccc23)C1` (racemic) [compound 061, rac-3-[4-butylsulfonylmorpholin-2-yl]benzothiophene-2-carboxamide], the EC50 was above 2000 nM.

With `N#Cc1cccc(S(=O)(=O)N2CCOC(c3c(C(N)=O)sc4ccccc34)C2)c1` (racemic) [compound 062, rac-3-[4-(3-cyanophenyl)sulfonylmorpholin-2-yl]benzothiophene-2-carboxamide], the EC50 was above 2000 nM.

With `COC(=O)c1ccc(S(=O)(=O)N2CCOC(c3c(C(N)=O)sc4ccccc34)C2)cc1` (racemic) [compound 063, rac-methyl 4-[2-(2-carbamoylbenzothiophen-3-yl)morpholin-4-yl]sulfonylbenzoate], the EC50 was above 2000 nM.

Consider `CC(C)(C)OC(=O)N1CCC(S(=O)(=O)N2CCOC(c3c(C(N)=O)sc4ccccc34)C2)CC1` (racemic) [compound 064, rac-tert-butyl 4-[2-(2-carbamoylbenzothiophen-3-yl)morpholin-4-yl]sulfonylpiperidine-1-carboxylate], for which the concentration giving a half-maximal response (EC50) was above 2000 nM.

As for `NC(=O)c1sc2ccccc2c1C1CN(S(=O)(=O)c2ccc([N+](=O)[O-])cc2)CCO1` (racemic) [compound 065, rac-3-[4-(4-nitrophenyl)sulfonylmorpholin-2-yl]benzothiophene-2-carboxamide], the concentration giving a half-maximal response (EC50) was above 2000 nM.

Regarding `NC(=O)c1sc2ccccc2c1C1CN(S(=O)(=O)c2ccccc2C(F)(F)F)CCO1` (racemic) [compound 066, rac-3-[4-[2-(trifluoromethyl)phenyl]sulfonylmorpholin-2-yl]benzothiophene-2-carboxamide], the EC50 is above 2000 nM.

On to `NC(=O)c1sc2ccccc2c1C1CN(S(=O)(=O)c2ccccc2OC(F)(F)F)CCO1` (racemic) [compound 067, rac-3-[4-[2-(trifluoromethoxy)phenyl]sulfonylmorpholin-2-yl]benzothiophene-2-carboxamide], for which the half-maximal effective concentration (EC50) was above 2000 nM.

As for `NC(=O)c1sc2ccccc2c1C1CN(S(=O)(=O)c2ccc(O)cc2)CCO1` (racemic) [compound 068, rac-3-[4-(4-hydroxyphenyl)sulfonylmorpholin-2-yl]benzothiophene-2-carboxamide], the concentration giving a half-maximal response (EC50) is above 2000 nM.

For `CC(C)Oc1ccc(S(=O)(=O)N2CCOC(c3c(C(N)=O)sc4ccccc34)C2)cc1` (racemic) [compound 069, rac-3-[4-(4-isopropoxyphenyl)sulfonylmorpholin-2-yl]benzothiophene-2-carboxamide], the EC50 is below 1000 nM.

In the case of `NC(=O)C1=C(C2CN(S(=O)(=O)c3ccc(C(F)(F)F)c(F)c3)CCO2)c2ccccc2S1(=O)=O` (racemic) [compound 074, rac-1,1-dioxo-3-[4-[3-fluoro-4-(trifluoromethyl)phenyl]sulfonylmorpholin-2-yl]benzothiophene-2-carboxamide], the concentration for a half-maximal effect (EC50) is below 1000 nM.

Consider `Cc1cc(S(=O)(=O)N2CCO[C@@H](c3c(C(N)=O)sc4ccccc34)C2)ccc1F` (single isomer, unassigned) [compound 014], for which the EC50 is above 2000 nM.

Consider `NC(=O)c1sc2ccccc2c1[C@H]1CN(S(=O)(=O)c2ccc(C(F)(F)F)c(F)c2)CCO1` (single isomer, unassigned) [compound 055], for which the EC50 was above 2000 nM.

With `NC(=O)c1sc2ccccc2c1C1CN(S(=O)(=O)c2ccc(C(F)(F)F)c(F)c2)CCO1` (single isomer, unassigned) [compound 056], the concentration for a half-maximal effect (EC50) was below 1000 nM.
